Test results: ChEMBL document CHEMBL5036336, “Structure-Guided Optimization Provides a Series of TTK Protein Inhibitors with Potent Antitumor Activity” (J Med Chem, 2021)
Values after ≈ are worked out from the molar mass of the structure shown.

Key:
Homo sapiens [1] = species: Homo sapiens; assay: Selectivity ratio of IC50 for inhibition of JNK2 (unknown origin) to IC50 for inhibition of TTK (unknown origin)
[2] = Antitumor activity against human CAL-51 cells xenografted in CB17-SCID mouse assessed as tumor growth inhibition at 30 to 50 mg/kg, iv administered once per week for 16 days relative to control; format: functional; settings: dose 30-50 mg/kg, time 16 day
Cytochrome P450 2C8 = Cytochrome P450 2C8 (Homo sapiens, UniProt P10632); assay: Time dependent inhibition of CYP2C8 in human liver microsomes; format: ADME
Homo sapiens [3] = species: Homo sapiens; assay: Selectivity ratio of IC50 for inhibition of N1-SRC (unknown origin) to IC50 for inhibition of TTK (unknown origin)
[4] = Mean residence time in mouse at 2 mg/kg, iv; format: ADME, organism-based; settings: in vivo
[5] = target: T1, Mitogen-activated protein kinase 8 (Homo sapiens, UniProt P45983); assay: Inhibition of JNK1 (unknown origin) at 3 uM by Z-lyte assay relative to control
[6] = target: Voltage-gated inwardly rectifying potassium channel KCNH2 (Homo sapiens, UniProt Q12809); assay: Inhibition of hERG
CAL-51 = assay: Antiproliferative activity against human CAL-51 cells assessed as inhibition of cell proliferation measured after 3 days by Cell Titer-Glo luminescence based assay; format: functional; settings: CAL-51, 72 h
Homo sapiens [7] = species: Homo sapiens; assay: Selectivity ratio of IC50 for inhibition of JNK1 (unknown origin) to IC50 for inhibition of TTK (unknown origin)
[8] = target: T2, Proto-oncogene tyrosine-protein kinase Src (Homo sapiens, UniProt P12931); assay: Inhibition of SRC N1 (unknown origin) by Z-lyte assay
[9] = target: Leucine-rich repeat serine/threonine-protein kinase 2 (Homo sapiens, UniProt Q5S007); assay: Inhibition of LRRK2 (unknown origin) by ADAPTA assay
[10] = Volume of distribution at steady state in rat at 2 mg/kg, iv; format: ADME, organism-based; settings: in vivo, read-out: Vdss
[11] = target: Substance-K receptor (Homo sapiens) (UniProt P21452); assay: Inhibition of Neurokinin NK2 receptor (unknown origin) at 10 uM relative to control
[12] = target: Substance-P receptor (Homo sapiens) (UniProt P25103); assay: Inhibition of Neurokinin NK1 receptor (unknown origin) at 10 uM relative to control
[13] = AUC in rat at 2 mg/kg, iv; format: ADME, organism-based; parameters: dose 2 mg/kg; settings: in vivo
[14] = target: T3, Dual specificity protein kinase TTK (Homo sapiens, UniProt P33981); assay: Inhibition of TTK autophosphorylation at T686 residue in human CAL-51 cells measured after 1 hr by Western blot analysis; format: cell-based
T3 sequence (P33981 whole entry): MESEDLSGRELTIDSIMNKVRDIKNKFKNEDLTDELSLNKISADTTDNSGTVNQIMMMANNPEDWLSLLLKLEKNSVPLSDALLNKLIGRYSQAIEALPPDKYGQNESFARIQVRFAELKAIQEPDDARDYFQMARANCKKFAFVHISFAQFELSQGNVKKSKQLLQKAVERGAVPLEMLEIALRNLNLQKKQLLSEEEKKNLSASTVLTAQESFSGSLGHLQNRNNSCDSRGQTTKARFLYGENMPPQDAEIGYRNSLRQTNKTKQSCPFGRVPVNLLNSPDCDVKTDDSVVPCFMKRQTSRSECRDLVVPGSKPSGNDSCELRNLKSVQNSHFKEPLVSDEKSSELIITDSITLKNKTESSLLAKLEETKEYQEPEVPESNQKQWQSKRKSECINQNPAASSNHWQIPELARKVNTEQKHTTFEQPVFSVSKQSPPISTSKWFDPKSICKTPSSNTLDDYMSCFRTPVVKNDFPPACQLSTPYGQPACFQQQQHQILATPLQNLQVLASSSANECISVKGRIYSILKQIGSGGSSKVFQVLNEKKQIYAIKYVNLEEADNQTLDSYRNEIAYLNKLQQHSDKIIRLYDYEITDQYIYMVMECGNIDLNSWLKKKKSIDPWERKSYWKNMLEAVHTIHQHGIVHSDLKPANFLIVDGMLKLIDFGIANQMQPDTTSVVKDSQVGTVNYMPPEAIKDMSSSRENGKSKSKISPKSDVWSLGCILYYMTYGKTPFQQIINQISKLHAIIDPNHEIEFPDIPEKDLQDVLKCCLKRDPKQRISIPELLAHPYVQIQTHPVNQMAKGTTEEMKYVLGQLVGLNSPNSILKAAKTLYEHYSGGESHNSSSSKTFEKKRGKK

[15] = Clearance in rat at 2 mg/kg, iv; format: ADME, organism-based; settings: in vivo
[16] = target: Serine/threonine-protein kinase Chk2 (Homo sapiens, UniProt O96017); assay: Inhibition of CHK2 (unknown origin) at 3 uM by Z-lyte assay relative to control
[17] = target: Testis-specific serine/threonine-protein kinase 1 (Homo sapiens) (UniProt Q9BXA7); assay: Inhibition of TSSK1 (unknown origin) at 3 uM by Z-lyte assay relative to control
[18] = Clearance in mouse at 2 mg/kg, iv; format: ADME, organism-based; settings: in vivo
Homo sapiens [19] = species: Homo sapiens; assay: Selectivity ratio of IC50 for inhibition of TSSK1 (unknown origin) to IC50 for inhibition of TTK (unknown origin)
[20] = Toxicity in CB17-SCID mouse xenografted with human CAL-51 cells assessed as body weight loss at 30 to 50 mg/kg, iv administered once per week for 16 days; format: organism-based; settings: in vivo, 384 h, dose 30-50 mg/kg, time 16 day
[21] = target: Mitogen-activated protein kinase 9 (Homo sapiens, UniProt P45984); assay: Inhibition of JNK2 (unknown origin) at 3 uM by Z-lyte assay relative to control
[22] = target: MAP kinase-activated protein kinase 3 (Homo sapiens, UniProt Q16644); assay: Inhibition of MAPKAPK3 (unknown origin) by Z-lyte assay
Homo sapiens [23] = species: Homo sapiens; assay: Selectivity ratio of IC50 for inhibition of MAPKAPK3 (unknown origin) to IC50 for inhibition of TTK (unknown origin)
[24] = target: Muscarinic acetylcholine receptor M1 (Homo sapiens) (UniProt P11229); assay: Inhibition of muscarinic M1 receptor (unknown origin) at 10 uM relative to control
[25] = target: T2, Proto-oncogene tyrosine-protein kinase Src; assay: Inhibition of SRC N1 (unknown origin) at 3 uM by Z-lyte assay relative to control
[26] = target: Testis-specific serine/threonine-protein kinase 2 (Homo sapiens, UniProt Q96PF2); assay: Inhibition of TSSK2 (unknown origin) by Z-lyte assay
[27] = Kinetic solubility of compound in PBS at pH 7.4 at 200 uM incubated for 24 hrs by UPLC/MS analysis; format: physicochemical; settings: read-out: Kinetic_solubility
[28] = target: T1, Mitogen-activated protein kinase 8; assay: Inhibition of JNK1 (unknown origin) by Z-lyte assay
Cytochrome P450 3A4 = Cytochrome P450 3A4 (Homo sapiens, UniProt P08684); assay: Inhibition of CYP3A4 in human liver microsomes using […] as substrate incubated for 5 mins in presence of NADPH by LC-MS/MS analysis; format: ADME
[29] = target: T3, Dual specificity protein kinase TTK; assay: Displacement of kinase tracer 236 from TTK (unknown origin) by LanthaScreen Eu kinase binding assay

T1 sequence (P45983 whole entry): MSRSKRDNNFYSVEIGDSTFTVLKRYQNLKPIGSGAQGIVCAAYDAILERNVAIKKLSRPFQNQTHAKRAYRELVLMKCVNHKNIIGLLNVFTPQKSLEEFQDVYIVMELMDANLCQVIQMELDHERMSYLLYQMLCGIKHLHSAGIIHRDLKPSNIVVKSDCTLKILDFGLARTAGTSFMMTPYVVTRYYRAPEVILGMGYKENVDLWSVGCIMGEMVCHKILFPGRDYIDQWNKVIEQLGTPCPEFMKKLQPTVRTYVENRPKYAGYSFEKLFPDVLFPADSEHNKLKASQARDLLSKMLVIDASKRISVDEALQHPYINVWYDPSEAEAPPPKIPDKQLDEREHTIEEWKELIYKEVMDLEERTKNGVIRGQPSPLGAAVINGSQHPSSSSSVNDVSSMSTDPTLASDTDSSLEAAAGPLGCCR
T2 sequence (P12931 2-536 limits assumed): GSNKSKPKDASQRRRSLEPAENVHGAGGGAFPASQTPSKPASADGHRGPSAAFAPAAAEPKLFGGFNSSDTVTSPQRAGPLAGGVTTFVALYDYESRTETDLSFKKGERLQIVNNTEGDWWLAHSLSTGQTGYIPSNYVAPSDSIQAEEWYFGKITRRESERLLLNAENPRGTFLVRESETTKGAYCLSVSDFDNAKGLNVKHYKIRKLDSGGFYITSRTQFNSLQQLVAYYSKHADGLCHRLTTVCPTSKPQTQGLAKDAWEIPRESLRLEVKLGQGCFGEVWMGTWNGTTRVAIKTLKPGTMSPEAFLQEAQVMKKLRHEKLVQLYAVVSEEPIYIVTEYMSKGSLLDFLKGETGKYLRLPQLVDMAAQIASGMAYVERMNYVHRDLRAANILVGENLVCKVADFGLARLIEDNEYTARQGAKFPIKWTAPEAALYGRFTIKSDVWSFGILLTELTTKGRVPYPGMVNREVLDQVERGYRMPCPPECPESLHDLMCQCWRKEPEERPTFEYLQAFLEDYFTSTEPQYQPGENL
Cytochrome P450 3A4, sequence (P08684 whole entry): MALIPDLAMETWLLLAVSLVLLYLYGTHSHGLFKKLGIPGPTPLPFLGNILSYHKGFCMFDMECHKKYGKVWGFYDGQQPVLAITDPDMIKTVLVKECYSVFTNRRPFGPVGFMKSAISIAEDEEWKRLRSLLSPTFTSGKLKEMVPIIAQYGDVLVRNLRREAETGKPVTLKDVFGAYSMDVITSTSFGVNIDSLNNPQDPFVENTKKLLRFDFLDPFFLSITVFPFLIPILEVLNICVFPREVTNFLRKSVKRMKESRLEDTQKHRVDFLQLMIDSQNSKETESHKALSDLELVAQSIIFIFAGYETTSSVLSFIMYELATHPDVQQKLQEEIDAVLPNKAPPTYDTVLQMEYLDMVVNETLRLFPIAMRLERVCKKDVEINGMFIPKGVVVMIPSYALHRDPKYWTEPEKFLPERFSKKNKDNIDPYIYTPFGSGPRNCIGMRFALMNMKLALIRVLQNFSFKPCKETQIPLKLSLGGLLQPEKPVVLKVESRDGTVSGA
Mitogen-activated protein kinase 9, sequence (P45984 whole entry, looked up): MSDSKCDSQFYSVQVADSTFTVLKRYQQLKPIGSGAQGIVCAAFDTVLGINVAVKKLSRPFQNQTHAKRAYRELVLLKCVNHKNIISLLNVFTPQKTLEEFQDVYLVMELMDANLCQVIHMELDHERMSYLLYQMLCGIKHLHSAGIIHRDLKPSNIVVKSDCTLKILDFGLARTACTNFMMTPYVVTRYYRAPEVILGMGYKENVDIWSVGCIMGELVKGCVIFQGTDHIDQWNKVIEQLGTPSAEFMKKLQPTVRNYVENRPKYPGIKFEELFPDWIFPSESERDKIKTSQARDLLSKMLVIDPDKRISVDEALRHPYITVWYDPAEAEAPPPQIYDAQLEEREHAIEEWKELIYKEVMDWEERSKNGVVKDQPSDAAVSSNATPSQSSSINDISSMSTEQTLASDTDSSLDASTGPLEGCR
Substance-P receptor (Homo sapiens), sequence (P25103 whole entry): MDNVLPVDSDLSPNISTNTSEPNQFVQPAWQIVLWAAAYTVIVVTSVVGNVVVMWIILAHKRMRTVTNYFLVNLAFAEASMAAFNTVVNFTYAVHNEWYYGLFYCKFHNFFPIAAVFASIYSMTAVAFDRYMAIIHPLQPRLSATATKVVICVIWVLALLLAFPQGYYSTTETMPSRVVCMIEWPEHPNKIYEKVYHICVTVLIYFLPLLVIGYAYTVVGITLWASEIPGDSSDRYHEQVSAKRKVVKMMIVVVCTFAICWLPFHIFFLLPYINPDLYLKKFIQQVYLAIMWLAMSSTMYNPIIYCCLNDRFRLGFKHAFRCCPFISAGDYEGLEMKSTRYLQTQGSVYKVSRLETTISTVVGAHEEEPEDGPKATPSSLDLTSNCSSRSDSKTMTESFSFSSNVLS
Muscarinic acetylcholine receptor M1 (Homo sapiens), sequence (P11229 whole entry): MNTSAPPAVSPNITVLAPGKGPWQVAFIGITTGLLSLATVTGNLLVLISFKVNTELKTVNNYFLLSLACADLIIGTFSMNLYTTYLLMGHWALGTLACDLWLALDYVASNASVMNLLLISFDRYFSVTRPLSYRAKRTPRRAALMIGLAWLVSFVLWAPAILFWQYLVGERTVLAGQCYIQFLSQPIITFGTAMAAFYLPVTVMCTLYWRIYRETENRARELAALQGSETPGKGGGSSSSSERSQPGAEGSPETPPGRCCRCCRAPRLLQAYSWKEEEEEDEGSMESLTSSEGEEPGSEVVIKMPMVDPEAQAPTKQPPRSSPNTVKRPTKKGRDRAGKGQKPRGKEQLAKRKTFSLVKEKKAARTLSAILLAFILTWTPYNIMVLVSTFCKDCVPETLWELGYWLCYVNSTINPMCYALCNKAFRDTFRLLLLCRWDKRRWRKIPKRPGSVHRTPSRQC
Testis-specific serine/threonine-protein kinase 2, sequence (Q96PF2 whole entry): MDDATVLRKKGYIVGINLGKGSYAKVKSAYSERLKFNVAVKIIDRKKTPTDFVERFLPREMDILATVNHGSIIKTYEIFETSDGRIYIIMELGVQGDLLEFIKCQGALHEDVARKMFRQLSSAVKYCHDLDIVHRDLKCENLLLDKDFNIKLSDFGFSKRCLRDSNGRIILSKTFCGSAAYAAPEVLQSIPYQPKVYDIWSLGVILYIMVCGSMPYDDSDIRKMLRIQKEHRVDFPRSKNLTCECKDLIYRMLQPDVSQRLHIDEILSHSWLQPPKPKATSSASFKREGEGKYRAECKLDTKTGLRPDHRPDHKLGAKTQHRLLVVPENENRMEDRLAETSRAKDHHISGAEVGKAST
MAP kinase-activated protein kinase 3, sequence (Q16644 whole entry): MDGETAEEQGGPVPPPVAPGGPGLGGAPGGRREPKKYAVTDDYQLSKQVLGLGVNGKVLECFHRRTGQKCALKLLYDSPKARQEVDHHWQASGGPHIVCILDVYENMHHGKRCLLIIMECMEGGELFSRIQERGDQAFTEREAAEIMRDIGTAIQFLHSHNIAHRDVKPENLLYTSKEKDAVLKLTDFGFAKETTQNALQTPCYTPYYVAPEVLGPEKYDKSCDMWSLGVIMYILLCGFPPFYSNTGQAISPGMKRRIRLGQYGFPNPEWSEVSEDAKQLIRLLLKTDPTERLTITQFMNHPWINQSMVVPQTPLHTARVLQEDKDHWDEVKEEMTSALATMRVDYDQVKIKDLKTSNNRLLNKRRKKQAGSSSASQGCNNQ
Substance-K receptor (Homo sapiens), sequence (P21452 whole entry): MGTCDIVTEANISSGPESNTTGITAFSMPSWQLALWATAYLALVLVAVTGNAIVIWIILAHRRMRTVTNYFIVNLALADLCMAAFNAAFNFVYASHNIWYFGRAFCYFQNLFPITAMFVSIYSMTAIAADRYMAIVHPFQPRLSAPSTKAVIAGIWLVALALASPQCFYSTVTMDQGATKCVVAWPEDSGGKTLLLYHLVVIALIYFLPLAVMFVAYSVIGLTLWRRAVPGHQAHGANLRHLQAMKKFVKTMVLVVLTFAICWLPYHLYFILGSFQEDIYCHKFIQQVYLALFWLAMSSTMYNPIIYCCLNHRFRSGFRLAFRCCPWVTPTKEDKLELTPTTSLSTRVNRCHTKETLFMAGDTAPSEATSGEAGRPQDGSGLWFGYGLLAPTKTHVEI
Cytochrome P450 2C8, sequence (P10632 whole entry): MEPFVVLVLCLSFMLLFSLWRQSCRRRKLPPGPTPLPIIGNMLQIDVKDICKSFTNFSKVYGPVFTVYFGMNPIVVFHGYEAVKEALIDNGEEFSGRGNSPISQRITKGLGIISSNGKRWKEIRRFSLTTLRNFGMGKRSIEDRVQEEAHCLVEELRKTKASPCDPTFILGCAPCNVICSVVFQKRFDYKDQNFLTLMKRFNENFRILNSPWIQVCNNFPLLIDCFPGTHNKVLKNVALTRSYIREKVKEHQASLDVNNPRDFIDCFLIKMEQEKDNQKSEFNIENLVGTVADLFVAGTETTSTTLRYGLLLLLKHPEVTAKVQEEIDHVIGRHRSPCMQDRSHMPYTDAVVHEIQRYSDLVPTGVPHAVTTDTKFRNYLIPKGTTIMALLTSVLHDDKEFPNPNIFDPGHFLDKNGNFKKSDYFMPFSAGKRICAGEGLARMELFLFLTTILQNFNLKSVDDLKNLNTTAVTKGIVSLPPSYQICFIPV
Testis-specific serine/threonine-protein kinase 1 (Homo sapiens), sequence (Q9BXA7 whole entry): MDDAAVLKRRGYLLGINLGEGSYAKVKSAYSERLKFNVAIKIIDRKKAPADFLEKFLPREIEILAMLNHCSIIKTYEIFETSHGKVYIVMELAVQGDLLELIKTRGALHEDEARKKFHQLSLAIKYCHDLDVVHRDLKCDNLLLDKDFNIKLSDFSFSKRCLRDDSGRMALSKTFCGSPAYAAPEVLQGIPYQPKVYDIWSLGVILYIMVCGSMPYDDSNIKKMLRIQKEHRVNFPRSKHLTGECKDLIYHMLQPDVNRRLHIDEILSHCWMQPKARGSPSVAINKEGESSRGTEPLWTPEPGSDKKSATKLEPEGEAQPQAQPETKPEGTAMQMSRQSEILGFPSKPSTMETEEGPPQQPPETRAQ

SMILES: CCc1cccc(CC)c1N1CCn2cc(-c3nc(Nc4ccc(N5CCC(C(=O)N6CC7(CN(C)C7)C6)CC5)cc4OC)nc4[nH]ccc34)cc2C1=O
- Ratio IC50 (Homo sapiens [1]): 201
- TGI [2]: >60%
- IC50 (Cytochrome P450 2C8): > 30000 nM
- Ratio IC50 (Homo sapiens [3]): 433
- MRT [4]: 58.8 min
- inhibition [5]: > 80%
- IC50 [6]: > 30000 nM
- IC50 (CAL-51): 16 nM
- Ratio IC50 (Homo sapiens [7]): 64
- IC50 [8]: 1300 nM
- IC50 [9]: 342 nM
- Vd [10]: 0.66 L/kg
- inhibition [11]: 80%
- inhibition [12]: 80%
- AUC [13]: 18.2 µM·h
- IC50 [14]: 74 nM
- clearance [15]: 2.8 mL/min/kg
- inhibition [16]: > 80%
- inhibition [17]: > 80%
- clearance [18]: 8.8 mL/min/kg
- Ratio IC50 (Homo sapiens [19]): 11.7
- Activity [20]: Non-Toxic
- inhibition [21]: > 80%
- IC50 [22]: 1480 nM
- Ratio IC50 (Homo sapiens [23]): 493
- inhibition [24]: 80%
- inhibition [25]: > 80%
- IC50 [26]: 944 nM
- solubility kinetic at 24 h, 200 µM [27]: 180 µM (≈ 131 µg/mL)
- IC50 [28]: 192 nM
- IC50 (Cytochrome P450 3A4): > 5000 nM
- IC50 [29]: 3 nM
